Reference: US20050101595A1, “N-containing cycloalkyl-substituted amino-thiazole derivatives and pharmaceutical compositions for inhibiting cell proliferation and methods for their use” (PFIZER INC., priority 2003, published 2005)
Where a name gives a salt, the structure may show the parent alone. Read-outs that look alike come from different tables or passages of the source.

Experiments:
[1] = target: human CDK4 and genetically truncated (1-264) cyclin D3 (Homo sapiens, UniProt P11802); experiment: Inhibition of CDK4/Cyclin D Retinoblastoma Kinase Activity; format: biochemical; conditions: for Ki: apparent Ki, CDK4/truncated cyclin D3, Rb fragment substrate, 25 μM ATP
Method in brief: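 Apparent Ki values derive from fitting activity at varied inhibitor concentrations to a competitive (or competitive tight-binding) model. Kinase reactions used 5 nM CDK4/cyclin D3(1-264), Rb fragment substrate and 25 μM ATP. Incubation ran 20 min at 30 °C, extended to 60 min under linear conditions for tight binders.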

HCT-116 cell line = experiment: Inhibition of cell growth, tetrazolium salt (MTT) assay; format: cell-based; conditions: for IC50: Homo sapiens, HCT-116, 120 h, MTT, three to five days, read-out: HCT-116 IC50; for HCT-116 % Inhibition at 0.25 μM: 0.25 μM compound
Method in brief: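 HCT-116 cells in McCoy's 5A medium received compound 4 h after plating (0.5% v/v DMSO) and were incubated three to five days at 37° C, 5% CO2. MTT (0.2 mg/mL final) then added for 4 h; DMSO-solubilized formazan read at 540 nm against 0.5% DMSO-treated controls.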

CDK2/Cyclin A = CDK2/Cyclin A (Homo sapiens, UniProt P24941); experiment: Inhibition of CDK2/Cyclin A Retinoblastoma Kinase Activity; format: biochemical; conditions: for Ki: apparent Ki, CDK2/proteolyzed cyclin A, Rb fragment substrate, 25 μM ATP
Method in brief: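 Percent inhibition is calculated against DMSO-only wells after subtracting no-enzyme background. The enzyme is human CDK2 complexed with proteolyzed cyclin A, used at 10 nM or 19 nM on an Rb fragment with 25 μM [32/33P]ATP, at pH 7.4 and 30° C.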

[2] = 0.1 μM compound, HCT-116, Table 3
[3] = 0.1 μM compound, HCT-116, Table 4

Sequence of human CDK4 and genetically truncated (1-264) cyclin D3 (P11802 whole entry, the tested form may be a part): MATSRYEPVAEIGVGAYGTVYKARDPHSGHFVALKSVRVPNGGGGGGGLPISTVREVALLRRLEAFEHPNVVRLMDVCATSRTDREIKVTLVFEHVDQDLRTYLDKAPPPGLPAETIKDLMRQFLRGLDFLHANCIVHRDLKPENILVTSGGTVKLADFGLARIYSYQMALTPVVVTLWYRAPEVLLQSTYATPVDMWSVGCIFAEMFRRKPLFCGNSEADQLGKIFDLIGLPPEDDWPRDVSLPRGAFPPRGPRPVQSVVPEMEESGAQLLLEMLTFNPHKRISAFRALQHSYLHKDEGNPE
Sequence of human CDK4 and genetically truncated (1-264) cyclin D3 (P30281 1-264 partner): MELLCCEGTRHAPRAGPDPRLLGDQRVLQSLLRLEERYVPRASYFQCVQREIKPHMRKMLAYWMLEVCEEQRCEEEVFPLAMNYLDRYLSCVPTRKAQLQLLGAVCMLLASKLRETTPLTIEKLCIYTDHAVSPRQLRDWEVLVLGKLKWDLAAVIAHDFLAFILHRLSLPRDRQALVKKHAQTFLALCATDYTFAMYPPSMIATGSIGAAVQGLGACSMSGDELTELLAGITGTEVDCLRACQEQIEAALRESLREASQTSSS

Structure (SMILES)	Ki [1] [nM]	IC50 (HCT-116 cell line; first HCT-116 column (c4)) [nM]	IC50 (HCT-116 cell line; second HCT-116 column (c5)) [nM]	Ki (CDK2/Cyclin A) [nM]	CDK4 % Inhibition at 0.03 μM ([1]; at 0.03 μM) [%]	CDK2 % Inhibition at 0.03 μM (CDK2/Cyclin A; at 0.03 μM) [%]	HCT-116 % Inhibition at 0.1 μM (HCT-116 cell line; HCT-116 cells, at 0.1 μM) [%]	HCT-116 5 Inhibition at 0.25 μM (HCT-116 cell line; HCT-116 cells)	also measured
Cn1ccnc1SCCCS(=O)(=O)N1CCC(Nc2nc(N)c(C(=O)c3c(F)cccc3F)s2)CC1 [Example K22, 1-(4-Amino-2-{1-[3-(1-methyl-1H-imidazol-2-ylsulfanyl)-propane-1-sulfonyl]-piperidin-4-ylamino}-thiazol-5-yl)-1-(2,6-difluoro-phenyl)-methanone.]	7.3	> 500	> 500	4.8					
CCNC(=O)N1CCC(Nc2nc(N)c(C(=O)c3c(F)cccc3F)s2)CC1 [Example O31]									CDK4 % Inhibition at 0.03 μM ([1]; 0.03 μM compound, Table 2): 6%; HCT-116 % Inhibition at 0.25 μM (HCT-116 cell line; HCT-116, Table 2): 37%; CDK2 % Inhibition At 0.03 μM (CDK2/Cyclin A; 0.03 μM compound, Table 2): 33%
Nc1nc(NC2CCN(S(=O)(=O)c3ccc(OCCN4CCCC4)nc3)CC2)sc1C(=O)c1c(F)cccc1F [Example H5, 1-(4-Amino-2-{1-[6-(2-pyrrolidin-1-yl-ethoxy)-pyridine-3-sulfonyl]-piperidin-4-ylamino}-thiazol-5-yl)-1-(2,6-difluoro-phenyl)-methanone Trifluoroacetic Acid Salt]	0.39	71	> 500	1.1					
Cc1cc(C)c(S(=O)(=O)N2CCC(Nc3nc(N)c(C(=O)c4c(F)cccc4F)s3)CC2)c(C)c1 [Example P10]									CDK4 % Inhibition at 0.03 μM ([1]; 0.03 μM compound, Table 3): 11%; HCT-116 % Inhibition at 0.1 μM (HCT-116 cell line; [2]): 14%; HCT-116 % Inhibition at 0.25 μM (HCT-116 cell line; HCT-116, Table 3): 35%; CDK2 % Inhibition at 0.03 μM (CDK2/Cyclin A; 0.03 μM compound, Table 3): −14%
COc1ccccc1CCC(=O)N1CCC(Nc2nc(N)c(C(=O)c3c(F)cccc3F)s2)CC1 [Example R175]					41	19	0	47	
CCCCCc1ccc(C(=O)N2CCC(Nc3nc(N)c(C(=O)c4c(F)cccc4F)s3)CC2)cc1 [Example Q37]									CDK4 % Inhibition at 0.03 μM ([1]; 0.03 μM compound, Table 4): 45%; HCT-116 % Inhibition at 0.1 μM (HCT-116 cell line; [3]): 0%; HCT-116 % Inhibition at 0.25 μM (HCT-116 cell line; HCT-116, Table 4): 31%; CDK2 % Inhibition at 0.03 μM (CDK2/Cyclin A; 0.03 μM compound, Table 4): 12%
Nc1nc(NC2CCN(S(=O)(=O)CCCN3CC=CC3)CC2)sc1C(=O)c1c(F)cccc1F [Example K9, 1-(4-Amino-2-{1-[3-(2,5-dihydropyrrol-1-yl)propane-1-sulfonyl]-piperidin-4-ylamino}-thiazol-5-yl)-1-(2,6-difluoro-phenyl)-methanone.]	1.6	90	930	< 1.3					
Nc1nc(NC2CCN(C(=O)c3cccc(Br)c3)CC2)sc1C(=O)c1c(F)cccc1F [Example Q18]									CDK4 % Inhibition at 0.03 μM ([1]; 0.03 μM compound, Table 4): 73%; HCT-116 % Inhibition at 0.1 μM (HCT-116 cell line; [3]): 59%; HCT-116 % Inhibition at 0.25 μM (HCT-116 cell line; HCT-116, Table 4): 92%; CDK2 % Inhibition at 0.03 μM (CDK2/Cyclin A; 0.03 μM compound, Table 4): 44%
C[C@@H]1CN(CCCS(=O)(=O)N2CCC(Nc3nc(N)c(C(=O)c4c(F)cccc4F)s3)CC2)C[C@H](C)N1 [Example K1, 1-(4-Amino-2-{1-[3-(3,5-cis-dimethylpiperazin-1-yl)-propane-1-sulfonyl]-piperidin-4-ylamino}-thiazol-5-yl)-1-(2,6-difluoro-phenyl)-methanone]	2	> 5000	> 5000	7.8					
Nc1nc(NC2CCN(S(=O)(=O)c3c(Cl)nc4sccn34)CC2)sc1C(=O)c1c(F)cccc1F [Example P79]									CDK4 % Inhibition at 0.03 μM ([1]; 0.03 μM compound, Table 3): 44%; HCT-116 % Inhibition at 0.1 μM (HCT-116 cell line; [2]): 10%; HCT-116 % Inhibition at 0.25 μM (HCT-116 cell line; HCT-116, Table 3): 18%; CDK2 % Inhibition at 0.03 μM (CDK2/Cyclin A; 0.03 μM compound, Table 3): 53%

The next lines start with results.

Ki [1] [nM]	IC50 (HCT-116 cell line; first HCT-116 column (c4)) [nM]	IC50 (HCT-116 cell line; second HCT-116 column (c5)) [nM]	Ki (CDK2/Cyclin A) [nM]	CDK4 % Inhibition at 0.03 μM ([1]; at 0.03 μM) [%]	CDK2 % Inhibition at 0.03 μM (CDK2/Cyclin A; at 0.03 μM) [%]	Structure (SMILES)	HCT-116 % Inhibition at 0.1 μM (HCT-116 cell line; HCT-116 cells, at 0.1 μM) [%]	HCT-116 5 Inhibition at 0.25 μM (HCT-116 cell line; HCT-116 cells)	also measured
				7	14	Cc1ccc(C)c(C(=O)N2CCC(Nc3nc(N)c(C(=O)c4c(F)cccc4F)s3)CC2)c1 [Example R128]	0	56	
				48	62	Nc1nc(NC2CCN(C(=O)c3sccc3Cl)CC2)sc1C(=O)c1c(F)cccc1F [Example R51]	0	37	
				16	14	CN(C)c1ccc(C(=O)N2CCC(Nc3nc(N)c(C(=O)c4c(F)cccc4F)s3)CC2)cc1 [Example R79]	0	47	
